Key:
human TLR7 = target: T1, human TLR7 (Homo sapiens, UniProt Q9NYK1); assay: Human TLR7 reporter gene assay (Test 1); type: cell-based; conditions: half-maximal SEAP induction, TLR7/NF-κB/SEAPorter HEK293 cell line, overnight 37° C., 0.1% DMSO
T1 construct: expresses full-length human TLR7 and secretory alkaline phosphatase (SEAP) reporter gene; host or cells: TLR7/NF-κB/SEAPorter HEK293 cell line
T1 sequence (Q9NYK1 27-1049): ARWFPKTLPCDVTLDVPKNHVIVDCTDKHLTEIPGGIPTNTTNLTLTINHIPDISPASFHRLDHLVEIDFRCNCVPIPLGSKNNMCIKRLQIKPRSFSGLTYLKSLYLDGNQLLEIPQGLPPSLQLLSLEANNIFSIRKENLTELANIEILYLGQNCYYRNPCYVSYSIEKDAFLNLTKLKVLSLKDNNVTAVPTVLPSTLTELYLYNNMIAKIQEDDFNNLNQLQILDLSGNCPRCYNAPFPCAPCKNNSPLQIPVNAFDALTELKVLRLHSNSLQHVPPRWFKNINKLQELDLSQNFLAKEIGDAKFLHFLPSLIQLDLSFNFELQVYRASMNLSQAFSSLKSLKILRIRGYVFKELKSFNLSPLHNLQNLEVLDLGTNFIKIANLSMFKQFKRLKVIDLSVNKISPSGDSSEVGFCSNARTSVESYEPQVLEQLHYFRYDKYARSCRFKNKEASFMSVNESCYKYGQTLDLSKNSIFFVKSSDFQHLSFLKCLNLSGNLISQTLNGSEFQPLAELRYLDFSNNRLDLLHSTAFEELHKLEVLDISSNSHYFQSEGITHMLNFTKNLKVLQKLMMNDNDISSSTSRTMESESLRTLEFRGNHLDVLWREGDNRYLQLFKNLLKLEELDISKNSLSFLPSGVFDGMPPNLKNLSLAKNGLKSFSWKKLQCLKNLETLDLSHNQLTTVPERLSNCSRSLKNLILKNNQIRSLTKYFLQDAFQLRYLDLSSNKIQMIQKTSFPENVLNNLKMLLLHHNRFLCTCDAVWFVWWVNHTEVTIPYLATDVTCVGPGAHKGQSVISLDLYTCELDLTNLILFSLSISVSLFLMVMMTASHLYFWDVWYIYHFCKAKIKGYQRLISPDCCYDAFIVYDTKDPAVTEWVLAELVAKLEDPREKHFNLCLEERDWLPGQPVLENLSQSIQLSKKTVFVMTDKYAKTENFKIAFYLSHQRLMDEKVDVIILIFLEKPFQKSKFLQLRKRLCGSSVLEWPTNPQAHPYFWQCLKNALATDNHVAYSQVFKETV
Source text: TLR7/NF-κB/SEAPorter™ HEK293 cell line (Imgenex Corporation) is a stably co-transfected cell line which expresses full-length human TLR7 and secretory alkaline phosphatase (SEAP) reporter gene under the transcriptional regulation of an NF-κB response element. The TLR7 expression of the cell line has been already tested by flow cytometry. Transfectants with stable expression were selected using the antibiotic blasticidin and Geneticin. TLR signaling leads to the translocation of NF-κB and the activation of the promoter results in expression of the SEAP gene. TLR7-specific activation was assessed by determining the level of SEAP produced following overnight incubation of the cells at 37° C. with each compound prepared in Examples and Reference examples in the presence of 0.1% (v/v) dimethylsulfoxide (DMSO). The human TLR7 activity for the present compound was assessed by human TLR7 reporter gene assay, and the results are shown in Tables 6 and 7 as the compound concentration which produced half of the maximal level of SEAP induction (EC50).

mouse TLR7 = target: T2, mouse TLR7 (Mus musculus, UniProt P58681); assay: Mouse TLR7 reporter gene assay (Test 2); type: cell-based; conditions: half-maximal SEAP induction, HEK-Blue mTLR7 cell line, overnight 37° C., 0.1% DMSO
T2 construct: expresses full-length mouse TLR7 and secretory SEAP reporter gene; host or cells: HEK-Blue mTLR7 cell line
T2 sequence (P58681 27-1050): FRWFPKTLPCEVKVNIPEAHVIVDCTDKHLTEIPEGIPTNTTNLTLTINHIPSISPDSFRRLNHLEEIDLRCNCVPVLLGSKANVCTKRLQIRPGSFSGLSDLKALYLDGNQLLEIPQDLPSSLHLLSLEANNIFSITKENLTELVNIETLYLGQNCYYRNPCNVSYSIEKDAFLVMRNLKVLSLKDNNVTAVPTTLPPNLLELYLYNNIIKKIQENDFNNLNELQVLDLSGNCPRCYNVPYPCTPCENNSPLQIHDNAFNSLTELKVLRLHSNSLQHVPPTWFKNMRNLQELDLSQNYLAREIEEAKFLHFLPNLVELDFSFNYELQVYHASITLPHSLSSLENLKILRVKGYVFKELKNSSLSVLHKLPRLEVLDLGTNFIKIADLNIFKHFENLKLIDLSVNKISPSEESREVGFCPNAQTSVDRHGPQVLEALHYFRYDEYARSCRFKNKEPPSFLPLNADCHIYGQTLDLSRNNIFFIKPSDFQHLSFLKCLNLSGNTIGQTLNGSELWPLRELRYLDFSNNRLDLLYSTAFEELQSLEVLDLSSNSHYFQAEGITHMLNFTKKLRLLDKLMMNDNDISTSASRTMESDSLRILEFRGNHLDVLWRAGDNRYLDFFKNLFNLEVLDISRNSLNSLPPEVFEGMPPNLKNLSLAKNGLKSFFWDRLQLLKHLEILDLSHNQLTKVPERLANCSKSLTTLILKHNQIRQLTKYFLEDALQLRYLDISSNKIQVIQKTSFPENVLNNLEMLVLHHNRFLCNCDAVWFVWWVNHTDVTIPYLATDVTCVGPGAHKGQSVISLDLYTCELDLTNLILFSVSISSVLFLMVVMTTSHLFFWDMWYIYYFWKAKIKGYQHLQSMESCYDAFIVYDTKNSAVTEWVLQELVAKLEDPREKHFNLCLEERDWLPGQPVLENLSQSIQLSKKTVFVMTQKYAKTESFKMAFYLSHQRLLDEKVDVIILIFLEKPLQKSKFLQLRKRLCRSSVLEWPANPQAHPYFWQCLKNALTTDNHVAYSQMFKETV
Source text: HEK-Blue™ mTLR7 cell line (Invivogen) is a stably co-transfected cell line which expresses full-length mouse TLR7 and secretory SEAP reporter gene under the transcriptional regulation of an NF-κB response element. The TLR7 expression of the cell line has been already tested by RT-PCR. Transfectants with stable expression were selected using the antibiotic blasticidin and Zeocin. TLR signaling leads to the translocation of NF-κB and the activation of the promoter results in expression of the SEAP gene. TLR7-specific activation was assessed by determining the level of SEAP produced following overnight incubation of the cells at 37° C. with each compound prepared in Examples and Reference examples in the presence of 0.1% (v/v) DMSO. The mouse TLR7 activity for the present compound was assessed by mouse TLR7 reporter gene assay, and the results are shown in Tables 8 and 9 as the compound concentration which produced half of the maximal level of SEAP induction (EC50).

[1] = system: HLA-A*02:01 transgenic mouse; assay: In vivo adjuvant activity, CTL induction with vaccine b, IFNγ ELISPOT (Test 18); conditions: 0.04 nmol per body added to vaccine b versus no compound; twice
Procedure: The in vivo adjuvant activity of the compound of Example 6 was evaluated in the following procedure. To vaccine b like Test 17 was added the compound prepared in Example 6 to prepare a vaccine. The vaccine was administered to a HLA-A*02:01 transgenic mouse, and the adjuvant activity of the vaccine was evaluated by the method of testing antigen-specific CTL induction.
Specifically, Compound of formula 4 and Peptide SEQ ID No. 3 were dissolved in DMSO, and then diluted with water for injection to concentrations of Compound of formula 4 of 3 mg/mL and Peptide SEQ ID No. 3 of 2.25 mg/mL. The diluted peptide solution was mixed and emulsified with an equal volume of Montanide ISA 51 VG to prepare vaccine b. Vaccine b was injected to mice intradermally at the tail base area in an amount for administering 300 μg of Compound of formula 4 per body and 225 μg of Peptide SEQ ID No. 3 per body. Or, in the step of preparing vaccine b, the compound prepared in Example 6 was added to the diluted peptide solution to prepare a vaccine, and the prepared vaccine was injected to mice intradermally at the tail base area in an amount for administering 300 μg of Compound of formula 4 per body, 225 μg of Peptide SEQ ID No. 3 per body, and 0.04 nmol of the compound prepared in Example 6 per body. […] Then, after removal of the supernatant from the wells, stained spots on the ELISPOT plate were counted.

[2] = system: HLA-A*02:01 transgenic mouse; assay: In vivo adjuvant activity, CTL induction with vaccine b, IFNγ ELISPOT (Test 17); conditions: 0.04 nmol or 0.4 nmol per body added to vaccine b versus no compound; twice
Procedure: The in vivo adjuvant activity of the compounds prepared in Examples 7, 8, and 9 was evaluated in the following procedure. To vaccine b comprising Compound of formula 4 prepared in Reference example 9 and Peptide SEQ ID No. 3 prepared in Reference example 3 with Montanide ISA51 VG was added the compound prepared in Example 7, 8, or 9 to prepare each vaccine. The vaccine was administered to a HLA-A*02:01 transgenic mouse, and the adjuvant activity of each vaccine was evaluated by the method of testing antigen-specific CTL induction.
Specifically, Compound of formula 4 and Peptide SEQ ID No. 3 were dissolved in DMSO, and then diluted with water for injection to concentrations of Compound of formula 4 of 3 mg/mL and Peptide SEQ ID No. 3 of 2.25 mg/mL. The diluted peptide solution was mixed and emulsified with an equal volume of Montanide ISA 51 VG to prepare vaccine b. Vaccine b was injected to mice intradermally at the tail base area in an amount for administering 300 μg of Compound of formula 4 per body and 225 μg of Peptide SEQ ID No. 3 per body. […] Then, after removal of the supernatant from the wells, stained spots on the ELISPOT plate were counted.

Compound | EC50 (human TLR7; Table 6, Examples) [nM] | CTL counts responsive to Peptide SEQ ID No. 5 [2] | other results
CCCCOc1nc(N)c2[nH]c(=O)n(Cc3ccc(CN(C)CCOCCOCCOCCOCCO)cn3)c2n1 [Example 1, 6-amino-2-butoxy-9-{[5-(16-hydroxy-2-methyl-5,8,11,14-tetraoxa-2-azahexadecan-1-yl)pyridin-2-yl]methyl}-7,9-dihydro-8H-purin-8-one.trifluoroacetate] | 150 |  | EC50 (mouse TLR7; Table 8, Examples): 1450 nM
COCCOc1nc(N)c2[nH]c(=O)n(Cc3ccc(CN(C)CCOCCOCCOCCOCCO)cc3)c2n1 [Example 4, 6-amino-9-{[4-(16-hydroxy-2-methyl-5,8,11,14-tetraoxa-2-azahexadecan-1-yl)phenyl]methyl}-2-(2-methoxyethoxy)-7,9-dihydro-8H-purin-8-one] | 5300 |  | 
CCCCOc1nc(N)c2[nH]c(=O)n(Cc3ccc(CN(CCOCCOCCOCCO)CCOCCOCCOCCO)nc3)c2n1 [Example 6, 6-Amino-2-butoxy-9-({6-[13-hydroxy-2-(2-{2-[2-(2-hydroxyethoxy)ethoxy]ethoxy}ethyl)-5,8,11-trioxa-2-azatridecan-1-yl]pyridin-3-yl}methyl)-7,9-dihydro-8H-purin-8-one] |  |  | CTL counts responsive to Peptide SEQ ID No. 5 [1]: more
CCCCOc1nc(N)c2[nH]c(=O)n(Cc3ccc(CN(C)CCOCCOCCOCCOCCOCCOCCOCCOCCOCCO)nc3)c2n1 [Example 7, 6-Amino-2-butoxy-9-{[6-(31-hydroxy-2-methyl-5,8,11,14,17,20,23,26,29-nonaoxa-2-azahentriacontan-1-yl)pyridin-3-yl]methyl}-7,9-dihydro-8H-purin-8-one] |  | more | 
CCCCOc1nc(N)c2[nH]c(=O)n(Cc3ccc(CN(C)CCOCCOCCOCCOCCOCCOCCOCCOCCOCCOCCOCCOCCOCCOCCOCCOCCOCCOCCOCCOCCOCCOCCOCCO)nc3)c2n1 [Example 8, 6-Amino-2-butoxy-9-{[6-(73-hydroxy-2-methyl-5,8,11,14,17,20,23,26,29,32,35,38,41,44,47,50,53,56,59,62,65,68,71-tricosaoxa-2-azatriheptacontan-1-yl)pyridin-3-yl]methyl}-7,9-dihydro-8H-purin-8-one] |  | more | 
CCCCOc1nc(N)c2[nH]c(=O)n(Cc3ccc(CNC)cn3)c2n1 [compound 13, reference compound] |  |  | EC50 (human TLR7; Table 7, Reference examples): 82 nM; EC50 (mouse TLR7; Table 9, Reference examples): 279 nM

From patent publication US20220241409A1, “WATER SOLUBLE ADJUVANT AND COMPOSITION CONTAINING SAME” (Sumitomo Dainippon Pharma Co., Ltd., priority 2019, published 2022)
